Values quoted from earlier work in patent US7481758B2, “Pharmaceutically enhanced low-energy radiosurgery” (Sirius Medicine, LLC, priority 1997, dated 2009).

How the values were obtained:
lymphocytes = details: in lymphocytes; low-energy photons
brain tumors = details: low-energy x-rays and iodine, brain tumors in rabbits

For `II` [iodine], the dose enhancement (lymphocytes) is listed as “up to 3” and the dose enhancement (brain tumors) is listed as “about 30%”.
